# Test results as given in patent publication US10945438B2, “Methods and compositions for reducing fungal infestation and improving grass quality” (BASF CORPORATION, priority 2015, dated 2021).
# System: yellow spot
# Test: Percent turf area exhibiting yellow spot symptoms (Example 2)
# Type: in vivo, Agrostis palustris
# Details: alone versus in combination
# Description: In another aspect, a composition herein treats or reduces yellow spot disease. Yellow spot appears in the form of yellow, chlorotic, circular discrete patches ranging from dime/quarter size up to 2-3 inches diameter on bentgrass putting greens, tees, and approaches.
# The study was conducted on “A-1” creeping bentgrass maintained as a golf course putting green. Plots were mowed 6 times per week with clippings collected. The study was irrigated to prevent drought stress. Individual plots were 3 ft×6 ft and arranged in a randomized complete block design with 4 replications. Chipco 26GT (4 fl oz/1000 ft^2) was applied to the study for suppression of dollar spot and brown patch on 2 May, 9 June, 29 July, and 20 August. Treatments were applied in water equivalent to 2 gal 1000 ft-2 with a CO2-powered sprayer equipped with a TeeJet AI9508E nozzle at 50 psi. Treatments were initiated on 24 April and applied on 28-day intervals. The study was irrigated with 0.1-0.2 inches of water after all treatments were applied. […] Turfgrass quality was assessed on 24 April, 21 May, 18 June, 16 July, 13 August, and 2 September. NDVI was assessed on 21 May, 18 June, 17 July, 13 August, and 2 September. Root length (3 subsamples per plot) was assessed on 18 September.
smiles,measurement,value
CCCOC(=O)NCCCN(C)C [propamocarb],Control of yellow spot disease (in words),not controlled
